# Measured values published in US7091182B2, “Method for assisting in differential diagnosis and treatment of autistic syndromes” (Repligen Corporation, priority 1997, dated 2006).
# Entries after “also recorded” stand apart in the source; their conditions may differ.
# What was measured:
# [1] = tested on: children with autistic behavior; assay: Behavioral evaluation after secretin administration; assay type: in vivo, human
# Text: Prior to the secretion administration, each child underwent developmental/psychological evaluation. […] In addition, most underwent a structured evaluation including assessment of intelligence, language ability, adaptive function [Vineland Adaptive Behavior Scales]^53 and behavioral rating scales [Child Behavior Checklist]^54. A more specific measure directly related to autism, the Childhood Autism Rating Scale [CARS]^55, was also used.
# The most recent 8 cases had developmental/psychological evaluations at the University of Maryland or at the Kennedy Krieger Institute prior to the secretin administration.
# The number and type of evaluation techniques that were employed increased across subjects as did the degree of sophistication of the professional staff involved in the design and conduct of the evaluation approaches. Specifically, data on the first seven subjects consisted of brief clinical observations, parental report, analysis of videotapes, and reports of evaluations by professionals who had conducted routine assessments not specifically dictated by our research protocol. Whereas, data on the second eight subjects studied consisted of the same methods described above, as well as with the addition of direct observation of behavior employing a standard functional analysis of structured videotape samples (analyzed in random order by blind raters); standard assessments including Communication and Symbolic Behavior Scales (CSBS), Pre-School Language Scales—3 (PSLS), Bayley Scales of Infant Development: Second Edition, Vineland Adaptive Behavior Scales, Childhood Autism Rating Scale (CARS), and Behavior Observation System (BOS). Further, the evaluation team for the least eight subjects involved professionals from the areas of neuropsychology, behavioral psychology and developmental pediatrics from both the University of Maryland School of Medicine and the Kennedy Krieger Institute/Johns Hopkins University School of Medicine.
# [2] = tested on: children with autistic behavior; assay: Stool consistency / gastrointestinal symptoms after endoscopy and secretin injection; assay type: in vivo, human
# Text: The specific procedures were as follows.
# [3] = tested on: children with autistic behavior; assay: Evoked potential studies and SPECT imaging of the brain before and after secretin (Case 1); assay type: in vivo, human
# Text: Case 1. […], was the product of a full-term uncomplicated pregnancy. Development of language and social behavior proceeded normally until about 15 months of age. At that time they lost their expressive vocabulary and their social behavior deteriorated. They were clinically diagnosed with autism by a pediatric neurologist. A multidisciplinary evaluation changed the diagnosis to PDD not otherwise specified. […] Because of their chronic diarrhea and elevated antigliadin IgG antibody titer, they underwent an upper gastrointestinal endoscopy. […] Three weeks after the procedure their parent reported significant changes in their gastrointestinal symptoms and behavior. […] More dramatic changes occurred in their autistic behavior (Table 4). […] Eight months after the procedure they have still retained their cognitive gains.
# rats = conditions: ICV; cited from earlier work
# [4] = tested on: ovariectomized, estrogen-primed rats; conditions: cited from earlier work
substance,measurement,setting,value
secretin,latest behavioral evaluation (diagnosis),[1]; Case 1,"changed from a low functioning autistic child to a social, non-autistic, speech delayed child; also recorded: changed from a low functioning autistic child to a social, non-autistic, speech-delayed child"
same,changes in autistic behavior,"[1]; Case 1, after first secretin dose","dramatic improvement in eye contact, alertness, expressive language and fine motor skills; also recorded: improvements in eye contact, alertness, expressive language, and fine motor skills"
same,language and cognitive functions,"[1]; Case 1, second single secretin infusion eight months later",further improvement in their language and cognitive functions
same,cognitive skills,"[1]; Case 2, five weeks following a single dosage",progressive improvement in cognitive skills; also recorded: improved over a five weeks period
same,social behavior and language,"[1]; Case 2, second dose 3 months later",further improvement in their social behavior and language
same,language and communication skills,"[1]; Case 3, second infusion 3 months later",accelerated their improvement
same,"language, social, and communication skills","[1]; Case 3, three weeks and two months after the procedure","significant improvements in language, social, and communication skills; also recorded: improved significantly"
same,Progress after Secretin administration: eye contact,"[1]; Case #1, within two months, % of the time, before: Minimal eye contact",Eye contact 75% of the time
same,Progress after Secretin administration: bowel movements,"[1]; Case #1, within two months, before: Abnormal bowel movements",Normal bowel movements
same,Progress after Secretin administration: sleeping,"[1]; Case #1, within two months, before: Consistent sleeping problems",Has slept through almost every night entirely
same,Progress after Secretin administration: potty training,"[1]; Case #1, within two months, before: Diapers only",Completely potty trained
same,Progress after Secretin administration: imitating commands,"[1]; Case #1, within two months, before: Did not imitate commands",Will imitate almost any multi-step command
same,Progress after Secretin administration: water consumption,"[1]; Case #1, within two months, before: Excessive water consumption",Excessive water consumption - no change
same,Progress after Secretin administration: spinning episodes,"[1]; Case #1, within two months, before: Infrequent (1–2 times/week)",No spinning episodes
same,Progress after Secretin administration: diet preferences,"[1]; Case #1, within two months, before: Limited diet preferences",No change
same,Progress after Secretin administration: connections between language and objects,"[1]; Case #1, within two months, before: No apparent connections",Many connections made between new language learned and objects. Recites
same,Progress after Secretin administration: flash cards,"[1]; Case #1, within two months, before: No flash cards",40–50 Flash cards
same,Progress after Secretin administration: focus on requested tasks,"[1]; Case #1, within two months, before: No focus on requested tasks",Will sit and watch carefully. Will perform most tasks after watching once or
same,Progress after Secretin administration: interest in drawing,"[1]; Case #1, within two months, before: No interest in drawing",Wants to draw constantly. Will draw complete face and name the parts as he
same,Progress after Secretin administration: response to request for gestures,"[1]; Case #1, within two months, before: No response",Responds to all kinds of requests and spontaneously says these things themself.
same,Progress after Secretin administration: sentences,"[1]; Case #1, within two months, before: No sentences","Short sentences, such as “I love you”, “I want juice”, “Good night mammy”"
same,Progress after Secretin administration: words,"[1]; Case #1, within two months, before: Two words",100's of words - will repeat some aproximation at any word requested
same,Progress after Secretin administration: videos,"[1]; Case #1, within two months, before: Watch videos",Now gets “involved” interactively with their videos. They will imitate the hand
same,"autistic symptoms and cognitive, language, and social skills, share of responders",[1]; all children who received secretin,more than half of the children
same,Changes after Secretin: Activity level,"[1]; case #2, time 1 week",Very energetic but has very good focus during
same,Changes after Secretin: Appetite,"[1]; case #2, time 1 week",Eating more foods: 2–3 large meals per day:
same,Changes after Secretin: Movements,"[1]; case #2, time 1 week",A decrease in most abnormal movements but
same,Changes after Secretin: Social interaction,"[1]; case #2, time 1 week","Hugging therapists; better eye contact,"
same,Changes after Secretin: Correct responses to drills,"[1]; case #2, time 1 week, before: 50% correct responses",75–80% correct responses
same,Changes after Secretin: Bowel movements,"[1]; case #2, time 2–3 days",At first constipated for 2–3 days. then normal
same,"Changes after Secretin: Receptive language, commands understood","[1]; case #2, time 3 weeks, before: 20–30% of commands",understands where they are going: understands 75%
same,Changes after Secretin: Fine motor,"[1]; case #2, time 4 weeks",Putting together Legos: turns key in door; turns
same,Changes after Secretin: Gross motor,"[1]; case #2, time 4 weeks",Starts to hang on monkey bars: goes down fire
same,Changes after Secretin: Sleep,"[1]; case #2, time 1 day, before: 7–8 hours",10–12 hours per night uninterrupted every night
same,"Changes after Secretin: Alertness, concentration","[1]; case #2, time 2 days",Extremely alert: looking therapist directly in
same,Changes: Activity level,[1]; case #3,Less hyperactive. More settled. More attentive and
same,"Changes: Alertness, concentration",[1]; case #3,"Chewing clothing, hands, and licking have stopped."
same,Changes: Appetite,[1]; case #3,Normal diet seems to satisfy them more. No longer
same,Changes: Cognitive,[1]; case #3,"Actions are more purposeful. Playing sequencing,"
same,Changes: Eye contact,[1]; case #3,More eye contact. Seeks out attention and once
same,Changes: Fine motor skills,[1]; case #3,Now uses fork and spoon much more readily and
same,Changes: Sleep,[1]; case #3,Now goes to bed willing and happily. Takes great
same,Changes: Social interaction,[1]; case #3,Now has a friend at school. They participate actively in
same,Changes: Correct responses to drills/commands,"[1]; case #3, before: 50% correct responses",Rarely guessing. Very tuned in. Perhaps 80% correct
same,Changes: Bowel movements,"[1]; case #3, before: Loose stools or diarrhea",Normal bowel movement since week three
same,Changes: Receptive language,"[1]; case #3, before: understood 50% of commands",Understands almost everything. Understands two-step
same,increase in the scores on the Vineland Scale of Adaptive Behavior,"[1]; case three, immediately after secretin administration",22%
same,delayed reaction reported by the parents,"[1]; case three, one-to-two months later","improved eye contact, increased focus on tasks, as well as improvements in language"
same,language skills,"[1]; case two, after the secretin injection",significant improvement in language skills
same,Vineland Scale of Adaptive Behaviors,[1]; child SG,increase in all five areas tested
same,increase in the CSBS,[1]; child SG,25%
same,increases in language skills,[1]; child SG,six-to-nine month
same,increase in language skills measured by the PSLS (equivalent in development),[1]; child WB,five months to one year
same,increase on the Bayley Scale of Development,[1]; child WB,11 point
same,increase on the CSBS scale,"[1]; child WB, within four months",37%
same,autistic symptoms,[1]; each of the three cases,produced relief from autistic symptoms
same,"cognitive, social, language, and age appropriate skills","[1]; first seven subjects, parental report and non-protocol evaluations","dramatic changes in cognitive, social, language, and age appropriate skills were reported for four of the first seven subjects"
same,decrease of activity level measured by actometers,[1]; subject one,50%
same,increase on the BOS,[1]; subject one,22%
same,chronic diarrhea,"[2]; Case 1, within three weeks after the procedure",their chronic diarrhea resolved; also recorded: His chronic diarrhea resolved
same,chronic diarrhea,[2]; Case 3,His chronic diarrhea resolved
same,duration of stool improvement,[2]; seven children with chronic loose stools,In five children this improvement was permanent
same,consistency of stools,"[2]; seven children with chronic loose stools, after endoscopy and secretin injection",all of them had an improvement in the consistency of stools
same,repeat evoked potential studies,"[3]; Case 1, eight months after secretin administration",only a minimal delay in responses
same,"SPECT, cerebral perfusion / blood flow","[3]; Case 1, follow-up versus pre-secretin study",marked improvement in the cerebral blood flow; also recorded: less marked decrease in perfusion of right posterior parietal and right temporal lobes
same,defecation,rats,significantly increased
same,novel-object approaches,rats,decreased
same,stereotypic behavior,rats,no significant effects
same,circadian rise of LH secretion,[4],strikingly effective in increasing
